Assay results taken from PubChem BioAssay AID2060603 (Molecular Pharmacology Branch, DTP, NCI, 2025).

Test system: 422866-222-R5-J1-PDC spheroid viability
Assay: Anticancer human tumor 422866-222-R5-J1-PDC patient-derived pancreatic adenocarcinoma cell line growth inhibition [CLK]
Conditions: spheroids with HUVEC and MSC; for IC50: curve of first compound; for viability, T/C: stronger effect = lower value
Procedure, shortened: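 Patient-derived tumor cells grown as complex spheroids with HUVEC endothelial cells and mesenchymal stem cells, treated with drug combinations. Concentrations descend in half-log steps from near clinical Cmax, or from 10 microM if Cmax unknown.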

[1] = second compound 0.0316 µM, first compound 0.00316 µM
[2] = second compound 0.0316 µM, first compound 0.01 µM
[3] = second compound 0.0316 µM, first compound 0.0316 µM
[4] = second compound 0.0316 µM, first compound 0.1 µM
[5] = second compound 0.1 µM, first compound 0.00316 µM
[6] = second compound 0.1 µM, first compound 0.01 µM
[7] = second compound 0.1 µM, first compound 0.0316 µM
[8] = second compound 0.1 µM, first compound 0.1 µM
[9] = second compound 0.316 µM, first compound 0.00316 µM
[10] = second compound 0.316 µM, first compound 0.01 µM
[11] = second compound 0.316 µM, first compound 0.0316 µM
[12] = second compound 0.316 µM, first compound 0.1 µM
[13] = second compound 1 µM, first compound 0.00316 µM
[14] = second compound 1 µM, first compound 0.01 µM
[15] = second compound 1 µM, first compound 0.0316 µM
[16] = second compound 1 µM, first compound 0.1 µM
[17] = second compound 3.16 µM, first compound 0.00316 µM
[18] = second compound 3.16 µM, first compound 0.01 µM
[19] = second compound 3.16 µM, first compound 0.0316 µM
[20] = second compound 3.16 µM, first compound 0.1 µM
[21] = second compound 10 µM, first compound 0.00316 µM
[22] = second compound 10 µM, first compound 0.01 µM
[23] = second compound 10 µM, first compound 0.0316 µM
[24] = second compound 10 µM, first compound 0.1 µM
[25] = second compound 0.0316 µM, first compound 0.316 µM
[26] = second compound 0.0316 µM, first compound 1 µM
[27] = second compound 0.1 µM, first compound 0.316 µM
[28] = second compound 0.1 µM, first compound 1 µM
[29] = second compound 0.316 µM, first compound 0.316 µM
[30] = second compound 0.316 µM, first compound 1 µM
[31] = second compound 1 µM, first compound 0.316 µM
[32] = second compound 1 µM, first compound 1 µM
[33] = second compound 3.16 µM, first compound 0.316 µM
[34] = second compound 3.16 µM, first compound 1 µM
[35] = second compound 10 µM, first compound 0.316 µM
[36] = second compound 10 µM, first compound 1 µM
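Further: spheroids exposed to agents for seven days before readout.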

Structure (SMILES): Cn1ncnc1[C@H]1c2n[nH]c(=O)c3cc(F)cc(c23)N[C@@H]1c1ccc(F)cc1 + CN1CCN(c2cc(C(=O)Nc3cc4cc(-c5cnn(C)c5)ccc4cn3)ccn2)CC1
- IC50 (second compound 0.0316 µM): > 100 nM
- IC50 (second compound 0.1 µM): > 100 nM
- IC50 (second compound 0.316 µM): > 100 nM
- IC50 (second compound 1 µM): < 0.316 nM
- IC50 (second compound 3.16 µM): < 0.316 nM
- IC50 (second compound 10 µM): < 0.316 nM
- viability, T/C (second compound 0.0316 µM, first compound 0.000316 µM): 92.9%
- viability, T/C (second compound 0.0316 µM, first compound 0.001 µM): 112%
- viability, T/C [1]: 106%
- viability, T/C [2]: 102%
- viability, T/C [3]: 96%
- viability, T/C [4]: 87.3%
- viability, T/C (second compound 0.1 µM, first compound 0.000316 µM): 126%
- viability, T/C (second compound 0.1 µM, first compound 0.001 µM): 114%
- viability, T/C [5]: 113%
- viability, T/C [6]: 97.2%
- viability, T/C [7]: 90%
- viability, T/C [8]: 80.1%
- viability, T/C (second compound 0.316 µM, first compound 0.000316 µM): 99.3%
- viability, T/C (second compound 0.316 µM, first compound 0.001 µM): 96.3%
- viability, T/C [9]: 85.8%
- viability, T/C [10]: 75.8%
- viability, T/C [11]: 81.7%
- viability, T/C [12]: 71.9%
- viability, T/C (second compound 1 µM, first compound 0.000316 µM): 24%
- viability, T/C (second compound 1 µM, first compound 0.001 µM): 22.9%
- viability, T/C [13]: 19%
- viability, T/C [14]: 22.3%
- viability, T/C [15]: 22.3%
- viability, T/C [16]: 18.7%
- viability, T/C (second compound 3.16 µM, first compound 0.000316 µM): 7.18%
- viability, T/C (second compound 3.16 µM, first compound 0.001 µM): 10.9%
- viability, T/C [17]: 8.25%
- viability, T/C [18]: 7.82%
- viability, T/C [19]: 7.43%
- viability, T/C [20]: 10.8%
- viability, T/C (second compound 10 µM, first compound 0.000316 µM): 1.01%
- viability, T/C (second compound 10 µM, first compound 0.001 µM): 2.31%
- viability, T/C [21]: 1.8%
- viability, T/C [22]: 0.75%
- viability, T/C [23]: 3.12%
- viability, T/C [24]: 2.33%

Structure (SMILES): CCN1CCN(Cc2ccc(Nc3ncc(F)c(-c4cc(F)c5nc(C)n(C(C)C)c5c4)n3)nc2)CC1 + CN1CCN(c2cc(C(=O)Nc3cc4cc(-c5cnn(C)c5)ccc4cn3)ccn2)CC1
- IC50 (second compound 0.0316 µM): > 1000 nM
- IC50 (second compound 0.1 µM): > 1000 nM
- IC50 (second compound 0.316 µM): > 1000 nM
- IC50 (second compound 1 µM): < 3.16 nM
- IC50 (second compound 3.16 µM): < 3.16 nM
- IC50 (second compound 10 µM): < 3.16 nM
- viability, T/C [1]: 110%
- viability, T/C [2]: 101%
- viability, T/C [3]: 89%
- viability, T/C [4]: 88.8%
- viability, T/C [25]: 90.8%
- viability, T/C [26]: 110%
- viability, T/C [5]: 122%
- viability, T/C [6]: 113%
- viability, T/C [7]: 93.8%
- viability, T/C [8]: 85.5%
- viability, T/C [27]: 72.5%
- viability, T/C [28]: 107%
- viability, T/C [9]: 103%
- viability, T/C [10]: 84.9%
- viability, T/C [11]: 89%
- viability, T/C [12]: 72.3%
- viability, T/C [29]: 69.4%
- viability, T/C [30]: 84.5%
- viability, T/C [13]: 34.6%
- viability, T/C [14]: 37.7%
- viability, T/C [15]: 34.4%
- viability, T/C [16]: 41.9%
- viability, T/C [31]: 53.5%
- viability, T/C [32]: 49.8%
- viability, T/C [17]: 8.29%
- viability, T/C [18]: 8.47%
- viability, T/C [19]: 8.82%
- viability, T/C [20]: 7.58%
- viability, T/C [33]: 9.92%
- viability, T/C [34]: 13.5%
- viability, T/C [21]: 1.95%
- viability, T/C [22]: 2.42%
- viability, T/C [23]: 1.51%
- viability, T/C [24]: 1.89%
- viability, T/C [35]: 2.56%
- viability, T/C [36]: 1.96%

Structure (SMILES): CC1COCCN1c1cc(C2(S(C)(=N)=O)CC2)nc(-c2ccnc3[nH]ccc23)n1 (stereo unspecified) + CNC(=O)c1ccc(Nc2nc(OC3CCCC3)c3c(-c4ccc5nc(C)oc5c4)c[nH]c3n2)c(OC)c1
- IC50 (second compound 0.0316 µM): 7150 nM
- IC50 (second compound 0.1 µM): > 10000 nM
- IC50 (second compound 0.316 µM): 2560 nM
- IC50 (second compound 1 µM): 1560 nM
- IC50 (second compound 3.16 µM): 973 nM
- IC50 (second compound 10 µM): 630 nM
- viability, T/C [3]: 108%
- viability, T/C [4]: 137%
- viability, T/C [25]: 104%
- viability, T/C [26]: 102%
- viability, T/C (second compound 0.0316 µM, first compound 3.16 µM): 59.6%
- viability, T/C (second compound 0.0316 µM, first compound 10 µM): 46.2%
- viability, T/C [7]: 106%
- viability, T/C [8]: 98.4%
- viability, T/C [27]: 88%
- viability, T/C [28]: 84.6%
- viability, T/C (second compound 0.1 µM, first compound 3.16 µM): 56.9%
- viability, T/C (second compound 0.1 µM, first compound 10 µM): 60.6%
- viability, T/C [11]: 79.8%
- viability, T/C [12]: 71.6%
- viability, T/C [29]: 69.3%
- viability, T/C [30]: 58%
- viability, T/C (second compound 0.316 µM, first compound 3.16 µM): 43.5%
- viability, T/C (second compound 0.316 µM, first compound 10 µM): 50.5%
- viability, T/C [15]: 61.4%
- viability, T/C [16]: 66.7%
- viability, T/C [31]: 59.3%
- viability, T/C [32]: 52.1%
- viability, T/C (second compound 1 µM, first compound 3.16 µM): 43.6%
- viability, T/C (second compound 1 µM, first compound 10 µM): 52.5%
- viability, T/C [19]: 65.3%
- viability, T/C [20]: 65.1%
- viability, T/C [33]: 58.3%
- viability, T/C [34]: 50%
- viability, T/C (second compound 3.16 µM, first compound 3.16 µM): 44.8%
- viability, T/C (second compound 3.16 µM, first compound 10 µM): 53.8%
- viability, T/C [23]: 64.5%
- viability, T/C [24]: 69.2%
- viability, T/C [35]: 58.8%
- viability, T/C [36]: 42.2%
- viability, T/C (second compound 10 µM, first compound 3.16 µM): 39.8%
- viability, T/C (second compound 10 µM, first compound 10 µM): 50.4%
